Test results: patent US11905251B1, “1-cyclopropyl-6-fluoro-7-(4-(2-hydroxy-3-(naphthalen-2-yloxy)propylpiperazin-1-yl)-4-oxo-1,4-dihydroquinoline-3-carboxylic acid as an eco-friendly insecticidal agent against Spodoptera littoralis (boisd.)” (priority 2023, dated 2024)
Converted amounts (≈) assume the structure as drawn.

Tested on: Spodoptera littoralis (Boisd.) 2nd and 4th instar larvae
Assay: Insecticidal bioassay screening (castor leaf dip, larval mortality)
Type: in vivo
Details: for Toxic ratio: fenoxycarb's LC50 / compound's LC50 × 100
Method: Five concentrations (200, 100, 50, 25, 12.5 ppm) were designed for this synthetic compound and the reference fenoxycarb compound as the dynamic ingredients based on ppm via diluting the commercial formulation.
In this experiment, castor leaves are immersed in each of the previously prepared concentrations of the components for 10 seconds and then left to dry for 60 minutes. Larvae of the second and fourth instars of each checked strain are prepared with treated leaves in gauze-covered glass containers for 72 hrs. An untreated control is made in which leaves are dipped in triton x-100 and distilled water only. Then the preserved leaves were removed & fresh, untreated leaves were provided for 72 hours. Three replicates (10 larvae each) were checked for each concentration. Daily inspection was carried out for all treatments and mortality percentages were recorded 3 days (72 hours) after treatment. The average mortality percentage was corrected employing Abbott's formula. The corrected mortality rate for each of the previously synthesized compounds is statistically calculated according to Finney (1970). Through this rate, the corresponding concentration test lines (LDP lines) are assessed. Fifty and ninety percent mortality are determined, and the regression values for the checked products were previously evaluated.

[1] = Spodoptera littoralis, foliar, 72 h, 2nd instar larvae of S. littoralis, after 72 h of treatment
[2] = Spodoptera littoralis, foliar, 72 h, 4th instar larvae of S. littoralis, after 72 h of treatment
[3] = Spodoptera littoralis, foliar, against Spodoptera littoralis under laboratory conditions (instar not given)

## O=C(O)c1cn(C2CC2)c2cc(N3CCN(CC(O)COc4ccc5ccccc5c4)CC3)c(F)cc2c1=O (stereo not shown) [listing 1 of 2 here]
In vivo
  LC50: about 103.01 ppm

## O=C(O)c1cn(C2CC2)c2cc(N3CCN(CC(O)COc4ccc5ccccc5c4)CC3)c(F)cc2c1=O (stereo not shown) [listing 2 of 2 here]
In vivo
  LC50: about 44.08 ppm

## CCOC(=O)NCCOc1ccc(Oc2ccccc2)cc1 [Fenoxycarb, reference compound]
2nd instar larvae, 72 h
  Toxic ratio: 100
4th instar larvae, 72 h
  Toxic ratio: 1
[1]
  LC50: 2.73 µg/mL (≈ 9.06 µM)
[2]
  LC50: 43.2 µg/mL (≈ 143 µM)
[3]
  LC50: 2.73 µg/mL (≈ 9.06 µM)

## O=C(O)c1cn(C2CC2)c2cc(N3CCN(CC(O)COc4ccc5ccccc5c4)CC3)c(F)cc2c1=O (stereo not shown) [Compound 7]
2nd instar larvae, 72 h
  Toxic ratio: 6.1
4th instar larvae, 72 h
  Toxic ratio: 41.9
[1]
  LC50: 44.1 µg/mL (≈ 82.9 µM)
[2]
  LC50: 103 µg/mL (≈ 194 µM)
[3]
  LC50: 44.1 µg/mL (≈ 82.9 µM)
Compared with reference insecticide fenoxycarb
  activity against Spodoptera littoralis (in words): active against Spodoptera littoralis
